Where two headings read alike, the source gives them in different places.
What was measured:
[1] = target: T1, HCV NS3/4A protease complex (UniProt P27958, C1454S/C1711G, species not given); assay: Recombinant HCV NS3/4A protease complex FRET peptide assay (strain not stated); assay type: biochemical
T1 construct: fused on or other part: Three-lysine solubilising tail at the C-terminus of NS4A

[2] = tested on: HCV replicon in Huh7 cells; assay: HCV replicon cell-based assay; set-up: species or system HCV strain 1B; conditions: HCV replicon, 4 days, read-out: EC50 range
How it was run: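 Huh7 cells carrying a genotype 1b subgenomic replicon (NS3-NS5B, neo) treated 4 days at 37° C with compound (0.5% DMSO final). NS3 protease activity read in lysates with 10 μM FRET peptide (340/490 nm, kinetic), giving EC50. Confirmed by Taqman qRT-PCR of HCV RNA and a Renilla luciferase replicon.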

[3] = HCV NS3/4A protease enzyme assay, read-out: IC50 range

SMILES	IC50 [1, 3] [nM]	EC50 ([2]; Hepatitis C virus, Huh-7, 96 h) [nM]	EC50 [2] [nM]	IC50 ([1]; read-out: IC50 range, HCV NS3/4A protease enzyme assay) [nM]
C=CC1C[C@]1(NC(=O)[C@@H]1C[C@@H](OC(=O)Nc2onc(C)c2C)CN1C(=O)[C@@H](NC(=O)OC(C)(C)C)C(C)(C)C)C(=O)NS(=O)(=O)C1CC1 (stereo partly drawn) [Compound 70, BocNH-P3(t-BuGly)-P2(Hyp(O—CO(NH—(3,4-Dimethyl-isoxazol-5-yl))))-P1(1R,2S VinylAcca)—CONHSO2Cyclopropane]	100 to 1000	> 10000	–	–
C=CC1C[C@]1(NC(=O)[C@@H]1C[C@@H](OC(=O)Nc2sc3c(c2C(=O)OCC)CCCC3)CN1C(=O)[C@@H](NC(=O)OC(C)(C)C)C(C)(C)C)C(=O)NS(=O)(=O)C1CC1 (stereo partly drawn) [Compound 49, BocNH-P3(t-BuGly)-P2(Hyp(O—CO(NH-2-(4,5,6,7-tetrahydro-benzo[b]thiophene-3-carboxylic acid ethyl ester))))-P1(1R,2S VinylAcca)—CONHSO2Cyclopropane]	100 to 1000	1000 to 10000	–	–
C=CC1C[C@]1(NC(=O)[C@@H]1C[C@@H](OC(=O)Nc2cc(C(=O)OCC)ccc2N2CCCCC2)CN1C(=O)[C@@H](NC(=O)OC(C)(C)C)C(C)(C)C)C(=O)NS(=O)(=O)C1CC1 (stereo partly drawn) [Compound 91, BocNH-P3(t-BuGly)-P2(Hyp(O—CO(NH—(5-carboxyethyl-2-piperidin-1-ylphenyl))))-P1(1R,2S VinylAcca)—CONHSO2Cyclopropane]	< 100	100 to 1000	–	–
C=CC1C[C@]1(NC(=O)[C@@H]1C[C@@H](OC(=O)Nc2ccccc2/C(=N/O)c2ccccc2)CN1C(=O)[C@@H](NC(=O)OC(C)(C)C)C(C)(C)C)C(=O)NS(=O)(=O)C1CC1 (single isomer, unassigned) [Compound 77b]	100 to 1000	–	> 10000	–
C=CC1C[C@]1(NC(=O)[C@@H]1C[C@@H](OC(=O)Nc2ccccc2N2CCOCC2)CN1C(=O)[C@@H](NC(=O)OC(C)(C)C)C(C)(C)C)C(=O)NS(=O)(=O)C1CC1 (stereo partly drawn) [Compound 82, BocNH-P3(t-BuGly)-P2(Hyp(O—CO(NH-2-(morpholin-4-yl-phenyl))))-P1(1R,2S VinylAcca)—CONHSO2Cyclopropane]	< 100	100 to 1000	–	–
C=CC1C[C@]1(NC(=O)[C@@H]1C[C@@H](OC(=O)Nc2cc(C)ccc2-n2cccn2)CN1C(=O)[C@@H](NC(=O)OC(C)(C)C)C(C)(C)C)C(=O)NS(=O)(=O)C1CC1 (stereo partly drawn) [Compound 96, BocNH-P3(t-BuGly)-P2(Hyp(O—CO(NH—(5-Methyl-2-pyrazol-1-yl-phenyl))))-P1(1R,2S VinylAcca)—CONHSO2Cyclopropane]	< 100	< 100	–	–
C=CC1C[C@]1(NC(=O)[C@@H]1C[C@@H](OC(=O)Nc2ccc3c(c2)OCO3)CN1C(=O)[C@@H](NC(=O)OC(C)(C)C)C(C)(C)C)C(=O)NS(=O)(=O)C1CC1 (stereo partly drawn) [Compound 10, BocNH-P3(t-BuGly)-P2(Hyp(O—CO(NH-Benzo[1,3]dioxol-5-yl)))-P1(1R,2S VinylAcca)—CONHSO2Cyclopropane]	100 to 1000	> 10000	–	–
C=CC1C[C@]1(NC(=O)[C@@H]1C[C@@H](OC(=O)Nc2cc([N+](=O)[O-])ccc2C)CN1C(=O)[C@@H](NC(=O)OC(C)(C)C)C(C)(C)C)C(=O)NS(=O)(=O)C1CC1 (stereo partly drawn) [Compound 15, BocNH-P3(t-BuGly)-P2(Hyp(O—CO(NH—(2-methyl-5-nitro-phenyl))))-P1(1R,2S VinylAcca)—CONHSO2Cyclopropane]	< 100	1000 to 10000	–	–
C=CC1C[C@]1(NC(=O)[C@@H]1C[C@@H](OC(=O)Nc2cc(C)ccc2Cl)CN1C(=O)[C@@H](NC(=O)OC(C)(C)C)C(C)(C)C)C(=O)NS(=O)(=O)C1CC1 (stereo partly drawn) [Compound 38, BocNH-P3(t-BuGly)-P2(Hyp(O—CO(NH—(2-chloro-5-methyl-phenyl))))-P1(1R,2S VinylAcca)—CONHSO2Cyclopropane]	< 100	100 to 1000	–	–
C=CC1C[C@]1(NC(=O)[C@@H]1C[C@@H](OC(=O)N(c2ccccc2)c2ccccc2)CN1C(=O)[C@@H](NC(=O)OC(C)(C)C)C(C)(C)C)C(=O)NS(=O)(=O)C1CC1 (stereo partly drawn) [Compound 39, BocNH-P3(t-BuGly)-P2(Hyp(O—CO(N,N-diphenyl)))-P1(1R,2S VinylAcca)—CONHSO2Cyclopropane]	–	100 to 1000	–	< 100
C=CC1C[C@]1(NC(=O)[C@@H]1C[C@@H](OC(=O)Nc2nc(Cl)c(Cl)nc2C(=O)OC)CN1C(=O)[C@@H](NC(=O)OC(C)(C)C)C(C)(C)C)C(=O)NS(=O)(=O)C1CC1 (stereo partly drawn) [Compound 35, BocNH-P3(t-BuGly)-P2(Hyp(O—CO(NH-3-(5,6-Dichloro-pyrazine-2-carboxylic acid methyl ester))))-P1(1R,2S VinylAcca)—CONHSO2Cyclopropane]	< 100	> 10000	–	–
C=CC1C[C@]1(NC(=O)[C@@H]1C[C@@H](OC(=O)Nc2cccc(OC)c2)CN1C(=O)[C@@H](NC(=O)OC(C)(C)C)C(C)(C)C)C(=O)NS(=O)(=O)C1CC1 (stereo partly drawn) [Compound 27, BocNH-P3(t-BuGly)-P2(Hyp(O—CO(NH—(3-methoxy-phenyl))))-P1(1R,2S VinylAcca)—CONHSO2Cyclopropane]	< 100	1000 to 10000	–	–
C=CC1C[C@]1(NC(=O)[C@@H]1C[C@@H](OC(=O)Nc2ccccc2N2CCCCC2)CN1C(=O)[C@@H](NC(=O)OC(C)(C)C)C(C)(C)C)C(=O)NS(=O)(=O)C1CC1 (stereo partly drawn) [Compound 90, BocNH-P3(t-BuGly)-P2(Hyp(O—CO(NH—(2-Piperidin-1-yl-phenyl))))-P1(1R,2S VinylAcca)—CONHSO2Cyclopropane]	< 100	< 100	–	–
C=CC1C[C@]1(NC(=O)[C@@H]1C[C@@H](OC(=O)Nc2cccc(Cl)c2Cl)CN1C(=O)[C@@H](NC(=O)OC(C)(C)C)C(C)(C)C)C(=O)NS(=O)(=O)C1CC1 (stereo partly drawn) [Compound 31, BocNH-P3(t-BuGly)-P2(Hyp(O—CO(NH—(2,3-dichloro-phenyl))))-P1(1R,2S VinylAcca)—CONHSO2Cyclopropane]	< 100	100 to 1000	–	–
C=CC1C[C@]1(NC(=O)[C@@H]1C[C@@H](OC(=O)Nc2cc(C#N)ccc2-n2cccn2)CN1C(=O)[C@@H](NC(=O)OC(C)(C)C)C(C)(C)C)C(=O)NS(=O)(=O)C1CC1 (stereo partly drawn) [Compound 98, BocNH-P3(t-BuGly)-P2(Hyp(O—CO(NH—(5-Cyano-2-pyrazol-1-yl-phenyl))))-P1(1R,2S VinylAcca)—CONHSO2Cyclopropane]	< 100	< 100	–	–
C=CC1C[C@]1(NC(=O)[C@@H]1C[C@@H](OC(=O)Nc2cc(C(C)=O)ccc2N2CCCCC2)CN1C(=O)[C@@H](NC(=O)OC(C)(C)C)C(C)(C)C)C(=O)NS(=O)(=O)C1CC1 (stereo partly drawn) [Compound 80, BocNH-P3(t-BuGly)-P2(Hyp(O—CO(NH-1-(2-piperidino-5-acetylphenyl))))-P1(1R,2S VinylAcca)—CONHSO2Cyclopropane]	< 100	< 100	–	–
